Measurements published in ChEMBL document CHEMBL1201862, “PubChem BioAssay data set” (2004).
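1) Cells in 96-well plates. 2) Compound, 48 h, 5 concentrations. 3) Linear interpolation between surrounding doses. 4) Unreached endpoint = highest concentration. At the GI50, growth is halved.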 Calls of active or inactive are those of the source. Rule as the data show it: active = GI50 up to about 1.1 µM and inactive = higher.

Tests used:
Assay in all cases: inhibition of tumour cell growth, NCI panel, 48 h
RXF 393 = system: RXF 393
DU-145 = system: DU-145
TK-10 = system: TK-10
A549 = system: A549
T47D = system: T47D
HL-60 = system: HL-60
BT-549 = system: BT-549
KM12 = system: KM12
K562 = system: K562
HCT-15 = system: HCT-15
A498 = system: A498
MDA-MB-435 = system: MDA-MB-435
NCI-H460 = system: NCI-H460
SNB-19 = system: SNB-19
MCF7 = system: MCF7
SF-268 = system: SF-268
NCI-H226 = system: NCI-H226
MDA-MB-231 = system: MDA-MB-231
UACC-62 = system: UACC-62
CCRF-CEM = system: CCRF-CEM
SK-OV-3 = system: SK-OV-3
SK-MEL-28 = system: SK-MEL-28
SN12C = system: SN12C
NCI-H522 = system: NCI-H522
PC-3 = system: PC-3
UO-31 = system: UO-31
SNB-75 = system: SNB-75
786-0 = system: 786-0
COLO 205 = system: COLO 205
OVCAR-3 = system: OVCAR-3
SW-620 = system: SW-620
Malme-3M = system: Malme-3M
UACC-257 = system: UACC-257
ACHN = system: ACHN
HCC 2998 = system: HCC 2998
OVCAR-5 = system: OVCAR-5
HT-29 = system: HT-29
SF-295 = system: SF-295
HCT-116 = system: HCT-116
NCI-H23 = system: NCI-H23
NCI/ADR-RES = system: NCI/ADR-RES
M14 = system: M14
SF-539 = system: SF-539
MDA-N = system: MDA-N
SK-MEL-2 = system: SK-MEL-2
SR = system: SR
LOX IMVI = system: LOX IMVI
U-251 = system: U-251
MOLT-4 = system: MOLT-4
HOP-92 = system: HOP-92
IGROV-1 = system: IGROV-1
HOP-62 = system: HOP-62
EKVX = system: EKVX
OVCAR-4 = system: OVCAR-4
RPMI-8226 = system: RPMI-8226
CAKI-1 = system: CAKI-1
OVCAR-8 = system: OVCAR-8
Hs-578T = system: Hs-578T
SK-MEL-5 = system: SK-MEL-5

Measured: GI50

Cc1ccc(C(=O)c2[nH]c(Nc3ccc(Cl)cc3)c(C(=S)Nc3ccccc3)c2N)cc1
inactive: RXF 393 4.94 µM | DU-145 8.05 µM | TK-10 5.36 µM | A549 2.27 µM | T47D 15.5 µM | HL-60 44.4 µM | BT-549 8.04 µM | KM12 5.26 µM | K562 7.38 µM | A498 13.6 µM | MDA-MB-435 6.68 µM | NCI-H460 4.2 µM | SNB-19 5.61 µM | MCF7 12.5 µM | SF-268 5.78 µM | NCI-H226 14 µM | MDA-MB-231 10.1 µM | UACC-62 14.4 µM | CCRF-CEM 8.65 µM | SK-OV-3 14.2 µM | SK-MEL-28 4.21 µM | SN12C 13.1 µM | NCI-H522 9.68 µM | PC-3 6.84 µM | UO-31 9.14 µM | SNB-75 2.94 µM | 786-0 2.74 µM | COLO 205 1.45 µM | OVCAR-3 11.3 µM | SW-620 11.5 µM | Malme-3M 4.17 µM | UACC-257 18.7 µM | ACHN 3.27 µM | HCC 2998 2.29 µM | OVCAR-5 11 µM | HT-29 4.43 µM | SF-295 2.13 µM | HCT-116 3.72 µM | NCI-H23 3.14 µM | NCI/ADR-RES 4.37 µM | M14 12.9 µM | SF-539 5.3 µM | MDA-N 6.73 µM | SK-MEL-2 14.5 µM | SR 2.05 µM | LOX IMVI 3.91 µM | U-251 3.01 µM | MOLT-4 12.1 µM | HOP-92 12.9 µM | IGROV-1 4.41 µM | HOP-62 4.41 µM | EKVX 5.48 µM | OVCAR-4 1.97 µM | RPMI-8226 5.05 µM | CAKI-1 8.67 µM | OVCAR-8 4.68 µM
10.7 µM: HCT-15

CCOP1(=O)C=C(Sc2ccc([N+](=O)[O-])cc2[N+](=O)[O-])C(C)(C)O1 (configuration not stated)
inactive: RXF 393 17.9 µM | DU-145 13.4 µM | TK-10 17.1 µM | A549 19.9 µM | T47D 14.6 µM | HL-60 3.41 µM | BT-549 17.5 µM | KM12 16.5 µM | K562 2.52 µM | A498 25.6 µM | MDA-MB-435 11.4 µM | NCI-H460 21 µM | Hs-578T 26.7 µM | SNB-19 27.6 µM | MCF7 3.99 µM | SF-268 17.6 µM | NCI-H226 25.5 µM | UACC-62 11.5 µM | CCRF-CEM 2.42 µM | SK-OV-3 27.2 µM | SK-MEL-28 16.2 µM | SN12C 10.3 µM | NCI-H522 3.64 µM | PC-3 11.9 µM | UO-31 14.9 µM | SNB-75 19.8 µM | 786-0 8.81 µM | COLO 205 10.5 µM | OVCAR-3 11.6 µM | SW-620 11.6 µM | Malme-3M 12 µM | UACC-257 12.3 µM | ACHN 14.5 µM | HCC 2998 18.6 µM | OVCAR-5 21.2 µM | SK-MEL-5 9.86 µM | HT-29 8.39 µM | SF-295 17.9 µM | HCT-116 5.42 µM | NCI-H23 18.3 µM | NCI/ADR-RES 25.3 µM | M14 11.9 µM | SF-539 11.7 µM | MDA-N 5.07 µM | SK-MEL-2 11.3 µM | SR 3.59 µM | LOX IMVI 3.83 µM | U-251 14.9 µM | MOLT-4 4.13 µM | HOP-92 7.26 µM | IGROV-1 16.5 µM | HOP-62 27.9 µM | EKVX 14.4 µM | OVCAR-4 13.5 µM | RPMI-8226 5.25 µM | CAKI-1 11.7 µM | OVCAR-8 16.7 µM
14.7 µM: HCT-15

NC(CCC(=O)NC(CSC(=O)N(O)c1ccc(Br)cc1)C(=O)NCC(=O)O)C(=O)O (configuration not stated)
inactive: RXF 393 > 50 µM | DU-145 > 50 µM | A549 > 50 µM | BT-549 > 50 µM | K562 > 50 µM | MDA-MB-435 > 50 µM | NCI-H460 > 50 µM | Hs-578T 27.4 µM | MCF7 > 50 µM | SF-268 > 50 µM | MDA-MB-231 > 50 µM | SK-OV-3 > 50 µM | SK-MEL-28 > 50 µM | SN12C > 50 µM | PC-3 > 50 µM | UO-31 > 50 µM | 786-0 > 50 µM | OVCAR-3 > 50 µM | SW-620 > 50 µM | UACC-257 > 50 µM | ACHN > 50 µM | HCC 2998 > 50 µM | OVCAR-5 > 50 µM | HT-29 > 50 µM | SF-295 > 50 µM | NCI-H23 > 50 µM | NCI/ADR-RES > 50 µM | SF-539 > 50 µM | MDA-N > 50 µM | SK-MEL-2 > 50 µM | U-251 > 50 µM | MOLT-4 > 50 µM | HOP-62 > 50 µM | EKVX > 50 µM | OVCAR-4 > 50 µM | CAKI-1 > 50 µM
> 50 µM: HCT-15
